Reference: US20210040089A1, “KRAS MUTANT PROTEIN INHIBITORS” (Jacobio Pharmaceuticals Co., Ltd., priority 2019, published 2021)

Assays:
[1] = target: T1, KRAS G12C (Homo sapiens, UniProt P01116, G12C); experiment: SOS1 catalyzed nucleotide exchange assay (TR-FRET); format: biochemical; conditions: GDP-loaded HIS-KRAS(G12C), 1 hour pre-incubation with compound
T1 construct: HIS-KRAS (G12C, aa 2-185, Sino biological); purchased Sino biological
Protocol: 1. SOS1 Catalyzed Nucleotide Exchange Assay
HIS-KRAS (G12C, aa 2-185, Sino biological) was diluted to […] EDTA buffer (20 mM HEPES, pH 7.4, 50 mM NaCl, 10 mM EDA, 0.01% (v/v) Tween-20) and incubated for 30 min at 25° C. The EDTA pretreated HIS-KRAS(G12C) was diluted to 12 nM in assay buffer (25 mM HEPES, pH 7.4, 120 mM NaCl, 5 mM MgCl2, 1 mM DTI, 0.01% (v/v) Tween 20, 0.1% (w/v) BSA) containing 120 nM GDP(Sigma) and Mab Anti 6HIS-Tb cryptate Gold(Cisbio) and incubated for 1 hour at 25° C. to prepare GDP-loaded HIS-KRAS(G12C). The GDP-loaded HIS-KRAS(G12C) was pre-incubation with diluted compounds in a 384-well plate (Greiner) for 1 hour, then purified SOS 1ExD (Flag tag, aa 564-1049) and BODIPY™FL GTP (Invitrogen) were added to the assay wells (Final concentration: 3 nM HIS-KRAS(G12C), 2 μM SOS1 ExD, 80 nM BODIPY™FL GTP, 21 ng/mL MAb Anti 6HS-Tb cryptate Gold) and incubated for 4 hours at 25° C. TR-FRET signals were then read on Tecan Spark multimode microplate reader. The parameters were F486: Excitation 340 (35) nm, Emission 486 (10) nm, Lag time 100 μs, Integration time […]; F515: Excitation 340 (35) nm, Emission 515 (10) nm, Lag time […], Integration time 200 s. TR-FRET ratios for each individual wells were calculated by equation: TR-FRET ratio=(Signal F515/Signal F486)*10000. Then the data were analyzed using a 4-parameter logistic model to calculate IC50 values.

[2] = test system: Phospho-ERK1/2(THR202/TYR204) in NCI-H358 cells express KRAS G12C; experiment: Phospho-ERK1/2(THR202/TYR204) HTRF assay; format: cell-based; conditions: Homo sapiens; NCI-H358, 2 hours incubation; read-out: p-ERK inhibition in NCI-H358 IC50
Protocol: NCI-H358 cells express KRAS G12C were cultured in RPMI 1640 medium (Gibco) containing 10% fetal bovine serum (Gibco). Cells in culture medium were plated in 96-well plates at a concentration of 40,000 cells/well and allowed to attach overnight. The next day, culture medium was removed and added compounds diluted in assay medium (RPMI 1640, 0.1% EFBS). After 2 hours incubation in a 37° C./5% CO2 cell incubator, the assay medium was removed, then 50 μL of 1× supplemented lysis buffer (Cisbio) was added and the plates were incubated at 25° C. for 45 min with shaking. 10 μL of cell lysates from the 96-well plates were transferred to a 384-well plate (Greiner) containing 2.5 µL/well HTRF® pre-mixed antibodies (Cisbio 64AERPEH).
Incubate 4 hours at 25° C. and then read HTRF signals on Tecan Spark multimode microplate reader. The data were analyzed using a 4-parameter logistic model to calculate IC50 values.

[3] = test system: NCI-H358 cells express KRAS G12C; experiment: Cell growth inhibition assay (CCK-8); format: cell-based; conditions: Homo sapiens, 144 h; NCI-H358, 6 days incubation
Protocol: 3. Cell Growth inhibition assay
NCI-H358 cells express KRAS G12C were cultured in RPMI 1640 medium (Gibco) containing 10% fetal bovine serum (Gibco). Cells in culture medium were plated in 96-well plates at a concentration of 3000 cells/well ([…]) and allowed to attach overnight. The next day, compounds were diluted in culture medium and added to the plates. After 6 days incubation in a 37° C./5% CO2 cell incubator, the medium was removed, then 100 μL of 1×CCK-8 (MCE) in culture medium was added in each well. The plates were incubated 1.5-2 hours in a 37° C./5% CO2 cell incubator. OD450 signals were read on Tecan Spark multimode microplate reader and analyzed using a 4-parameter logistic model to calculate IC50 values.

T1 sequence (P01116 2-185 isoform P01116-2 G12C): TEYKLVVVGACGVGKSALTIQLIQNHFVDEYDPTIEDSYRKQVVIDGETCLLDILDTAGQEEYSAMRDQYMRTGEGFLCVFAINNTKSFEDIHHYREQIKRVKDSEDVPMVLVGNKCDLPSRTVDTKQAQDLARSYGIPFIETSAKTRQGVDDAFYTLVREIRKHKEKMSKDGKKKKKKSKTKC

`C=CC(=O)N1CCN(c2nc(OCC3(CN(C)C)CC3)nc3c2CCN(c2c(C)ccc4[nH]ncc24)C3)CC1CC#N` (stereo not shown) [Compound 3, 2-(1-acryloyl-4-(2-((1-((dimethylamino)methyl)cyclopropyl)methoxy)-7-(5-methyl-1H-indazol-4-yl)-5,6,7,8-tetrahydropyrido[3,4-d]pyrimidin-4-yl)piperazin-2-yl)acetonitrile] was tested, and the IC50 [1] was 12.1 nM, the IC50 [2] was 453 nM and the IC50 [3] was 408 nM.

For `C=CC(=O)N1CCN(c2nc(OCC3(CN4CCCC4)CC3)nc3c2CCN(c2cccc4ccccc24)C3)CC1CC#N` (stereo not shown) [Compound 4, 2-(1-acryloyl-4-(7-(naphthalen-1-yl)-2-((1-(pyrrolidin-1-ylmethyl)cyclopropyl)methoxy)-5,6,7,8-tetrahydropyrido[3,4-d]pyrimidin-4-yl)piperazin-2-yl)acetonitrile], the IC50 [1] was 18.9 nM, the IC50 [2] was 97.7 nM and the IC50 [3] was 93.3 nM.

`C=CC(=O)N1CCN(c2nc(OCC3CCCC(N(C)C)C3)nc3c2CCN(c2cccc4cccc(C)c24)C3)CC1CC#N` (stereo not shown) [Compound 5, 2-(1-acryloyl-4-(2-((3-(dimethylamino)cyclohexyl)methoxy)-7-(8-methylnaphthalen-1-yl)-5,6,7,8-tetrahydropyrido[3,4-d]pyrimidin-4-yl)piperazin-2-yl)acetonitrile] was tested, and the IC50 [1] was 19.6 nM, the IC50 [2] was 330 nM and the IC50 [3] was 174 nM.

`C=CC(=O)N1CCN(c2nc(OCC3CCCC(N(C)C)C3)nc3c2CCN(c2ccccc2C(F)(F)F)C3)CC1CC#N` (stereo not shown) [Compound 6, 2-(1-acryloyl-4-(2-((3-(dimethylamino)cyclohexyl)methoxy)-7-(2-(trifluoromethyl)phenyl)-5,6,7,8-tetrahydropyrido[3,4-d]pyrimidin-4-yl)piperazin-2-yl)acetonitrile] showed an IC50 [1] of 178 nM, an IC50 [2] of 592 nM and an IC50 [3] of 580 nM.

Molecule `C=CC(=O)N1CCN(c2nc(OCC3CC(N(C)C)C3)nc3c2CCN(c2cccc4ccccc24)C3)CC1CC#N` (stereo not shown) [Compound 8, 2-(1-acryloyl-4-(2-((3-(dimethylamino)cyclobutyl)methoxy)-7-(naphthalen-1-yl)-5,6,7,8-tetrahydropyrido[3,4-d]pyrimidin-4-yl)piperazin-2-yl)acetonitrile] has an IC50 [1] of 408 nM, an IC50 [2] of 769 nM and an IC50 [3] of 3470 nM.

Work on `C=CC(=O)N1CCN(c2nc(OC3CCCC(N(C)C)C3)nc3c2CCN(c2cccc4ccccc24)C3)CC1CC#N` (stereo not shown) [Compound 10, 2-(1-acryloyl-4-(2-((3-(dimethylamino)cyclohexyl)oxy)-7-(naphthalen-1-yl)-5,6,7,8-tetrahydropyrido[3,4-d]pyrimidin-4-yl)piperazin-2-yl)acetonitrile] yielded an IC50 [1] of 1740 nM, an IC50 [2] of 720 nM and an IC50 [3] of 940 nM.

For `C=CC(=O)N1CCN(c2nc(OCC3(N(C)C)CC3)nc3c2CCN(c2cccc4ccccc24)C3)CC1CC#N` (stereo not shown) [Compound 12, 2-(1-acryloyl-4-(2-((1-(dimethylamino)cyclopropyl)methoxy)-7-(naphthalen-1-yl)-5,6,7,8-tetrahydropyrido[3,4-d]pyrimidin-4-yl)piperazin-2-yl)acetonitrile], the IC50 [1] was 176 nM, the IC50 [2] was 518 nM and the IC50 [3] was 645 nM.

Molecule `C=CC(=O)N1CCN(c2nc(OCC3CCCC3N(C)C)nc3c2CCN(c2cccc4ccccc24)C3)CC1CC#N` (stereo not shown) [Compound 14, 2-(1-acryloyl-4-(2-((2-(dimethylamino)cyclopentyl)methoxy)-7-(naphthalen-1-yl)-5,6,7,8-tetrahydropyrido[3,4-d]pyrimidin-4-yl)piperazin-2-yl)acetonitrile] has an IC50 [1] of 54.1 nM, an IC50 [2] of 234 nM and an IC50 [3] of 217 nM.

`C=CC(=O)N1CCN(c2nc(OCC3CCCC(N(C)C)C3)nc3c2CCN(c2cccc4ccccc24)C3)CC1CC#N` (stereo not shown) [Compound 15, 2-(1-acryloyl-4-(2-((3-(dimethylamino)cyclohexyl)methoxy)-7-(naphthalen-1-yl)-5,6,7,8-tetrahydropyrido[3,4-d]pyrimidin-4-yl)piperazin-2-yl)acetonitrile] gave an IC50 [1] of 333 nM, an IC50 [2] of 876 nM and an IC50 [3] of 497 nM.

In the case of `C=CC(=O)N1CCN(c2nc(OCC3CCC(N(C)C)C3)nc3c2CCN(c2cccc4ccccc24)C3)CC1CC#N` (stereo not shown) [Compound 17, 2-(1-acryloyl-4-(2-((3-(dimethylamino)cyclopentyl)methoxy)-7-(naphthalen-1-yl)-5,6,7,8-tetrahydropyrido[3,4-d]pyrimidin-4-yl)piperazin-2-yl)acetonitrile], the IC50 [1] is reported as 83.6 nM, the IC50 [2] is reported as 312 nM and the IC50 [3] is reported as 299 nM.

Molecule `C=CC(=O)N1CCN(c2nc(OCC3CCCCC3N(C)C)nc3c2CCN(c2cccc4ccccc24)C3)CC1CC#N` (stereo not shown) [Compound 18, 2-(1-acryloyl-4-(2-((2-(dimethylamino)cyclohexyl)methoxy)-7-(naphthalen-1-yl)-5,6,7,8-tetrahydropyrido[3,4-d]pyrimidin-4-yl)piperazin-2-yl)acetonitrile] has an IC50 [1] of 428 nM, an IC50 [2] of 879 nM and an IC50 [3] of 507 nM.

Molecule `C=CC(=O)N1CCN(c2nc(OCC3(N(C)C)CC3)nc3c2CCN(c2cccc4cccc(C)c24)C3)CC1CC#N` (stereo not shown) [Compound 20, 2-(1-acryloyl-4-(2-((1-(dimethylamino)cyclopropyl)methoxy)-7-(8-methylnaphthalen-1-yl)-5,6,7,8-tetrahydropyrido[3,4-d]pyrimidin-4-yl)piperazin-2-yl)acetonitrile] has an IC50 [1] of 19.4 nM, an IC50 [2] of 127 nM and an IC50 [3] of 102 nM.

In the case of `C=CC(=O)N1CCN(c2nc(OC[C@@H]3CC[C@H](N(C)C)C3)nc3c2CCN(c2cccc4cccc(C)c24)C3)CC1CC#N` (stereo partly drawn) [Compound 22, 2-(1-acryloyl-4-(2-(((1R,3S)-3-(dimethylamino)cyclopentyl)methoxy)-7-(8-methylnaphthalen-1-yl)-5,6,7,8-tetrahydropyrido[3,4-d]pyrimidin-4-yl)piperazin-2-yl)acetonitrile], the IC50 [1] is reported as 10.7 nM, the IC50 [2] is reported as 96.6 nM and the IC50 [3] is reported as 65.2 nM.

For `C=CC(=O)N1CCN(c2nc(OCC3CCCC3N(C)C)nc3c2CCN(c2cccc4cccc(C)c24)C3)CC1CC#N` (stereo not shown) [Compound 23, 2-(1-acryloyl-4-(2-((2-(dimethylamino)cyclopentyl)methoxy)-7-(8-methylnaphthalen-1-yl)-5,6,7,8-tetrahydropyrido[3,4-d]pyrimidin-4-yl)piperazin-2-yl)acetonitrile], the IC50 [1] was 9.45 nM, the IC50 [2] was 112 nM and the IC50 [3] was 66.8 nM.

`C=CC(=O)N1CCN(c2nc(OCC3CCCC3N(C)C)nc3c2CCN(c2cccc(C)c2C)C3)CC1CC#N` (stereo not shown) [Compound 28, 2-(1-acryloyl-4-(2-((2-(dimethylamino)cyclopentyl)methoxy)-7-(2,3-dimethylphenyl)-5,6,7,8-tetrahydropyrido[3,4-d]pyrimidin-4-yl)piperazin-2-yl)acetonitrile] showed an IC50 [1] of 24.1 nM and an IC50 [3] of 138 nM.

With `C=CC(=O)N1CCN(c2nc(OCC3(CN4CCOCC4)CC3)nc3c2CCN(c2cccc(Cl)c2C(F)(F)F)C3)CC1CC#N` (stereo not shown) [Compound 40, 2-(1-acryloyl-4-(7-(3-chloro-2-(trifluoromethyl)phenyl)-2-((1-(morpholinomethyl)cyclopropyl)methoxy)-5,6,7,8-tetrahydropyrido[3,4-d]pyrimidin-4-yl)piperazin-2-yl)acetonitrile] the IC50 [1] was 23.8 nM and the IC50 [3] was 360 nM.
